Here are results for 16 compounds from patent US4883798A, “Pharmaceutical compositions” (EGIS Gyogyszergyar, priority 1987, dated 1989).

Like-named read-outs stand apart in the source and are kept apart here.

Data set [1] is described as follows: Acute toxicity in mice (p.o., 14 days observation). The settings on record: mouse, in vivo, po. The method, then: The experiments were performed in CFLP white mice of both sexes of 18-22 g body weight in groups of at least 10 animals. The test compound was applied p.o. dissolved in a solution containing 0.2% Tween-80 in distilled water in a volume of 20-30 ml/kg. The observation period after treatment lasted for 14 days. Statistical evaluation was carried out as described by Litchfield-Wilcoxon's method.
The above tests are carried out by standard methods. Reference is made to the following citations: Litchfield, J. T., Wilcoxon, F.: J. Pharmacol. Exp. Ther., 96, 99-113 (1949); Newbould, B. B.: Brit. J. Pharmacol. 35, 487 (1969); Shay, H., Kemarov, S. A., Fels, S. S., Meranze, D., Gruenstein, M., Siplet, H.: Gastroenterology 5, 45 (1945); Stickney, J. C., Northup, D. W., Van Liere, E. J.: Arch. int. Pharmacodyn. 147, 113 (1964); Winter, C. A., Risley E. A., Nuss, G. W.: Proc. Soc. Exp. Biol. Med. 111, 544-547 (1962).

A further data set deals with rats. The data set can be described thus: Analgesic activity "Writhing test" in rats (acetic acid i.p.). Type of data set: in vivo, rat. The following applies: p.o., 1 hour before acetic acid i.p. The method, then:
Rats weighing 130-170 g were administered intraperitoneally 0.75% (v/v) acetic acid in a volume of 8 ml/kg. Five minutes after treatment with acetic acid the total number of characteristic writhing reactions was counted for 10 minutes and expressed as percentage of the control group.
(§1) The above tests are carried out by standard methods. […] Pharmacodyn. […] A., Risley E. A., Nuss, G. W.: Proc. Soc.
(Writhing tests count abdominal constrictions after an irritant is injected.)

For another data set, the system named is granulocytes. As to the kind of experiment: Measurement of chemiluminescence of granulocytes (PHA-stimulated, luminol). In kind it is cell-based, human (healthy volunteers). The following applies: Homo sapiens, 0.25 h, read-out: IC50, chemiluminescence of granulocytes. The method, then:
The test-compounds were dissolved in dimethyl-sulfoxide (DMSO) in a concentration of 10^-1 M, dilutions were made in the incubation medium employed. Heparinized blood (10 IU/ml) was taken from healthy volunteers. The blood was diluted with equal wolume of dextran, then the white blood cells were separated by sedimentation. The granulocytes were separated by Uromio gradient. […] The cell suspension was put in dark box for 15 min. Luminol was dissolved in concentrated NH4 OH and diluted in the following solution:
50 ml Tris-Parker medium (containing 1,2 g Tris, pH=7,4)
150 ml Parker tissue culture medium
4 ml glucose 40% w/v in water
The Luminol solution (500 μl) was measured in plastic vials and put in dark (37° C.). The reaction was started by addition of the cells and stimulating agent (Phytohaemaglutinin-PHA-10 μg/ml).
The vials were continuously and gently shaken and the PHA stimulation was measured in every 2,5 min. for 15 min. in a Beckmann LS-100 spectrometer (coincidence switched off). The percentage of the counts measured was calculated in comparison with the solvent treated control cells. At least 5 concentrations of each compound were investigated in at least 3 parallels.

In another data set the test system is Wistar rats. The data set can be described thus: Antipyretic effect in rats (brewer yeast-induced fever). Type of data set: in vivo, rat (Wistar). The method, then:
The experiments were performed in groups of 10 Wistar rats of both sexes weighing 160-200 g. Fever was induced by 20% brewer yeast suspended in 0.9% saline solution, applied subcutaneously in a volume of 2 ml/rat distributed at various sites of the back. After 18 hours the test compound or the vehicle (control) was administered in volume of 10 ml./kg p.o. During this period the rats were fasted but received drinking water ad libitum. The rectal temperature of the animals was measured with a Thermotest thermometer 2 days before the administration of the test compound and after treatment every 60th minute. Animals with an increase of body temperature less than 0.8° C. were excluded from the experiment.
as §1

Where [2] appears, read: PHA 10 μg/ml stimulation, luminol 32 μM, 37° C., 15 min.

One may read the LD50 as the dose at which mortality reaches 50%. Low readings indicate greater toxicity, high ones lower toxicity. The IC50 is the point on the concentration scale where inhibition reaches its midpoint.

For the compound `COc1cccc(Cc2cnc(N)nc2N)c1OC` [Example 5, 2,4-Diamino-5-(2,3-dimethoxy-benzyl)-pyrimidine], in data set [1], the median lethal dose (LD50) at 336 h is approximately 500 mg/kg. Further, the “Analgesic effect on rats, Therapeutical Index” value in the data set with rats is “about 5.0”.

The compound `COc1cccc(Cc2cnc(N)nc2N)c1` [Example 2, 2,4-Diamino-5-(3-methoxy-benzyl)-pyrimidine] had a 50% lethal dose (LD50) at 336 h in data set [1] of approximately 410 mg/kg. The “Analgesic effect on rats, Therapeutical Index” value with rats is recorded as “about 5.9”. Besides, the concentration for half-maximal inhibition (IC50) with granulocytes (setting [2]) is approximately 100 µM.

Compound `COc1cc(Cc2cnc(N)nc2N)ccc1OCc1ccccc1` [Example 11, 2,4-Diamino-5-(3-methoxy-4-benzyloxy-benzyl)-pyrimidine] showed a 50% lethal dose (LD50) at 336 h in data set [1] of more than 2000 mg/kg. Moreover, in the data set on rats, the “Analgesic effect on rats, Therapeutical Index” value is more than 37.0.

In turn, `COc1ccc2c(c1)c(CC(=O)O)c(C)n2C(=O)c1ccc(Cl)cc1` [Indomethacin, 1-(p-chloro-benzoyl)-5-methoxy-2-methyl-1H-indole-3-acetic acid, reference compound] had a median lethal dose (LD50) at 336 h in data set [1] of 22.5 mg/kg. Besides, in the data set with rats, the “Analgesic effect on rats, Therapeutical Index” value turned out to be 4.8. Further, the IC50 with granulocytes turned out to be 100 µM.

The compound `CCCCOc1ccc(Cc2cnc(N)nc2N)cc1OC` [Example 9, 2,4-Diamino-5-(3-methoxy-4-n-butoxy-benzyl)-pyrimidine] had an LD50 at 336 h in data set [1] of more than 2000 mg/kg. The “Analgesic effect on rats, Therapeutical Index” value in the data set with rats is more than 125.0. Moreover, the IC50 in the data set with granulocytes (setting [2]) was approximately 1 µM.

The compound `COc1ccc(Cc2cnc(N)nc2N)c(OC)c1` [Example 4, 2,4-Diamino-5-(2,4-dimethoxy-benzyl)-pyrimidine] gave an LD50 at 336 h in data set [1] of approximately 2000 mg/kg. The “Analgesic effect on rats, Therapeutical Index” value in the data set on rats was “about 33.3”.

In data set [1], `COCCOc1ccc(Cc2cnc(N)nc2N)cc1OC` [Example 10, 2,4-Diamino-5-(3-methoxy-4-methoxyethoxy-benzyl)-pyrimidine] displayed a 50% lethal dose (LD50) at 336 h of less than 500 mg/kg. Besides, the “Analgesic effect on rats, Therapeutical Index” value with rats was less than 14.3.

For the compound `C=CCOc1ccc(Cc2cnc(N)nc2N)cc1OC.Cl` [Example 8, 2,4-Diamino-5-(3-methoxy-4-allyloxy-benzyl)-pyrimidine-hydrochloride], the LD50 at 336 h in data set [1] was approximately 1500 mg/kg. This compound returned a Maximal temperature decrease with Wistar rats (100 mg/kg p.o.) of 0.8 °C. Also, the “Analgesic effect on rats, Therapeutical Index” value in the data set on rats was “about 42.9”. The half-inhibitory concentration (IC50) in the data set on granulocytes (setting [2]) is approximately 1 µM.

In data set [1], `Br.COc1cc(Cc2cnc(N)nc2N)ccc1O` [Example 12, 2,4-Diamino-5-(3-methoxy-4-hydroxy-benzyl)-pyrimidine-hydrobromide] gave an LD50 at 336 h of more than 2000 mg/kg. In addition, in the data set on rats, the “Analgesic effect on rats, Therapeutical Index” value is given as more than 40.0.

On to `Nc1ncc(Cc2ccc3c(c2)OCO3)c(N)n1` [Example 6, 2,4-Diamino-5-(3,4-methylenedioxy-benzyl)-pyrimidine], for which the LD50 at 336 h in data set [1] is approximately 750 mg/kg. For the same compound, the Maximal temperature decrease with Wistar rats (100 mg/kg p.o.) was determined as 1.0 °C. Moreover, the “Analgesic effect on rats, Therapeutical Index” value in the data set with rats was “about 57.7”.

`CN1C(C(=O)Nc2ccccn2)=C(O)c2ccccc2S1(=O)=O` [Piroxicam, 4-hydroxy-2-methyl-N-2-pyridyl-2H-1,2-benzothiazine-3-carboxamide-1,1-dioxide, reference compound]: the half-inhibitory concentration (IC50) with granulocytes (setting [2]) came to 100 µM.

Turning to `COc1ccc(Cc2cnc(N)nc2N)cc1` [Example 1, 2,4-Diamino-5-(4-methoxy-benzyl)-pyrimidine], in data set [1], the LD50 at 336 h was approximately 350 mg/kg. Moreover, in the data set on Wistar rats (200 mg/kg p.o.), the Maximal temperature decrease was 0.9 °C. Moreover, in the data set on rats, the “Analgesic effect on rats, Therapeutical Index” value is on record as “about 8.1”. The IC50 in the data set on granulocytes (setting [2]) is approximately 100 µM.

`COc1cc(Cc2cnc(N)nc2N)cc(OC)c1` [Example 3, 2,4-Diamino-5-(3,5-dimethoxy-benzyl)-pyrimidine] registered an LD50 at 336 h in data set [1] of approximately 800 mg/kg. In addition, the “Analgesic effect on rats, Therapeutical Index” value in the data set with rats is “about 8.0”.

`CC(=O)Oc1ccccc1C(=O)O` [Acetylsalicylic acid, reference compound]: the Maximal temperature decrease in the data set with Wistar rats (200 mg/kg p.o.) is 1.0 °C.

Take `CCCCC1C(=O)N(c2ccccc2)N(c2ccccc2)C1=O` [Phenylbutazone, 3,5-dioxo-1,2-diphenyl-4-(n-butyl)-pyrazolidine, reference compound]: the IC50 with granulocytes (setting [2]) worked out at 100 µM.

As for `CCOc1ccc(Cc2cnc(N)nc2N)cc1OC` [Example 7, 2,4-Diamino-5-(3-methoxy-4-ethoxy-benzyl)-pyrimidine], in data set [1], the LD50 at 336 h is approximately 350 mg/kg. This compound also had a Maximal temperature decrease in the data set with Wistar rats (100 mg/kg p.o.) of 0.7 °C. Besides, the “Analgesic effect on rats, Therapeutical Index” value in the data set on rats was “about 7.6”. In the data set on granulocytes (setting [2]), the IC50 is approximately 1 µM.
